Measured values published in patent US20160222056A1, “SUBSTITUTED PHENYLALANINE DERIVATIVES” (BAYER PHARMA AKTIENGESELLSCHAFT, priority 2013, published 2016).
Counter-ions that a name gives are not always drawn.

How the values were obtained:
Assay type in all cases: biochemical
human and animal plasma = assay: Anticoagulatory activity: activated partial thromboplastin time (aPTT) in plasma; details: in vitro in plasma, C.K. Prest kit, 37° C. for 3 minutes; plasma species of Table B not stated
Procedure: The anticoagulatory activity of the test substances is determined in vitro in human and animal plasma (for example mouse, rat, rabbit, pig and dog plasma). To this end, blood is drawn off in a mixing ratio of sodium citrate/blood of 1:9 using a 0.11 molar sodium citrate solution as receiver. Immediately after the blood has been drawn off, it is mixed thoroughly and centrifuged at about 4000 g for 15 minutes. The supernatant is pipetted off.
The activated partial thromboplastin time (aPTT) is determined in the presence of varying concentrations of test substance or the corresponding solvent using a commercial test kit (C.K. Prest from Diagnostica Stago). The test compounds are incubated with the plasma and the PTT reagent (cephalin, kaolin) at 37° C. for 3 minutes. Coagulation is then started by addition of 25 mM aqueous calcium chloride, and the time when coagulation occurs is determined. The concentration of test substance which brings about a 1.5-fold extension of the aPTT is determined.

human factor XIa = target: T1, human factor XIa (Homo sapiens, UniProt P03951); assay: Measurement of FXIa inhibition (fluorogenic peptide substrate); details: human factor XIa from Kordia, substrate Boc-Glu(OBzl)-Ala-Arg-AMC, 30 min at 22° C.; read-out: IC50 (FXIa inhibition)
T1 construct: purchased Kordia
Procedure: To determine the factor XIa inhibition of the substances according to the invention, a biochemical test system is used which utilizes the reaction of a peptidic factor XIa substrate to determine the enzymatic activity of human factor XIa. Here, factor XIa cleaves from the peptic factor XIa substrate the C-terminal aminomethylcoumarin (AMC), the fluorescence of which is measured. The determinations are carried out in microtitre plates.
(§1) Test substances are dissolved in dimethyl sulphoxide and serially diluted in dimethyl sulphoxide (3000 μM to 0.0078 μM; resulting final concentrations in the test: 50 μM to 0.00013 μM). In each case 1 μl of the diluted substance solutions are placed into the wells of white microtitre plates from Greiner (384 wells). Subsequently, the following are added successively: 20 μl of assay buffer (50 mmol/1 Tris buffer pH 7.4; 100 mmol/1 sodium chloride; 5 mmol/1 calcium chloride; 0.1% bovine serum albumin) and 20 μl of factor XIa from Kordia (0.45 nM in assay buffer). After 15 min of incubation, the enzyme reaction is started by addition of 20 μl of the factor XIa substrate Boc-Glu(OBzl)-Ala-Arg-AMC dissolved in assay buffer (10 μM in assay buffer) from Bachem, the mixture is incubated at room temperature (22° C.) for 30 min and fluorescence is then measured (excitation: 360 nm, emission: 460 nm). The measured emissions of the test batches with test substance are compared to those of control batches without test substance (only dimethyl sulphoxide instead of test substance in dimethyl sulphoxide), and the IC50 values are calculated from the concentration/activity relationships.

human plasmin = target: T2, human plasmin (Homo sapiens, UniProt P00747); assay: Measurement of plasmin inhibition (fluorogenic peptide substrate); details: plasmin from Kordia, substrate MeOSuc-Ala-Phe-Lys-AMC, 30 min at 22° C.
T2 construct: purchased Kordia
Procedure: The plasmin inhibition of the inventive substances is determined using a biochemical test system which utilizes the reaction of a peptidic plasmin substrate to determine the enzymatic activity of human plasmin. Here, plasmin cleaves from the peptic plasmin substrate the C-terminal aminomethylcoumarin (AMC), the fluorescence of which is measured. The determinations are carried out in microtitre plates.
as §1, with “plasmin” for “factor XIa”, “(0.3 μg/ml” for “(0.45 nM”, “MeOSuc-Ala-Phe-Lys-AMC” for “Boc-Glu(OBzl)-Ala-Arg-AMC”, “(150” for “(10”

T2 sequence (P00747 581-810 limits assumed): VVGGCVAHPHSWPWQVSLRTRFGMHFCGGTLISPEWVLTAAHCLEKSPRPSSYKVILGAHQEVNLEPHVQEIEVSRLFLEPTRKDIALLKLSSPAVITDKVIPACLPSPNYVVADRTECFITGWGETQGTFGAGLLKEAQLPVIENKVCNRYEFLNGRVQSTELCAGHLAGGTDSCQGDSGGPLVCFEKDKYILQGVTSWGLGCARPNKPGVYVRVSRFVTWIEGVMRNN
T2 sequence (P00747 97-580 partner limits assumed): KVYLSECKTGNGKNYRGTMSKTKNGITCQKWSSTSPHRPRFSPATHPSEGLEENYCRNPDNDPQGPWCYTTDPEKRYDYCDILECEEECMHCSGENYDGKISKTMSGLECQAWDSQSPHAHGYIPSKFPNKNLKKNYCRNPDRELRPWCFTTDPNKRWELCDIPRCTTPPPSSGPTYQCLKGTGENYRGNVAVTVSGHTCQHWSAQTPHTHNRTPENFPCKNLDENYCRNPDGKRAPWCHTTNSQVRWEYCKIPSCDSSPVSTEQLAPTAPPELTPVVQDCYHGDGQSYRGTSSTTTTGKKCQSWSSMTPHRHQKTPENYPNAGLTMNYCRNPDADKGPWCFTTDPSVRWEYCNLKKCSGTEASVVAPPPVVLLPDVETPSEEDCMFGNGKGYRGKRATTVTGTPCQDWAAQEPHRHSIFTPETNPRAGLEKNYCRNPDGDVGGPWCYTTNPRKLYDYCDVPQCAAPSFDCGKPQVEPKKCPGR
T1 sequence (P03951 388-625 limits assumed): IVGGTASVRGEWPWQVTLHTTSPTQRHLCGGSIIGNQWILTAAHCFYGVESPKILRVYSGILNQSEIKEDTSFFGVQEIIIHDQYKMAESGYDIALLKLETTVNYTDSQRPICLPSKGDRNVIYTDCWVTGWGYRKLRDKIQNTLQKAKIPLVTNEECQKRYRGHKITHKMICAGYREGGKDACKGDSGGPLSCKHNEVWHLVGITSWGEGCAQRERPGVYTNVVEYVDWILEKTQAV
T1 sequence (P03951 19-387 partner limits assumed): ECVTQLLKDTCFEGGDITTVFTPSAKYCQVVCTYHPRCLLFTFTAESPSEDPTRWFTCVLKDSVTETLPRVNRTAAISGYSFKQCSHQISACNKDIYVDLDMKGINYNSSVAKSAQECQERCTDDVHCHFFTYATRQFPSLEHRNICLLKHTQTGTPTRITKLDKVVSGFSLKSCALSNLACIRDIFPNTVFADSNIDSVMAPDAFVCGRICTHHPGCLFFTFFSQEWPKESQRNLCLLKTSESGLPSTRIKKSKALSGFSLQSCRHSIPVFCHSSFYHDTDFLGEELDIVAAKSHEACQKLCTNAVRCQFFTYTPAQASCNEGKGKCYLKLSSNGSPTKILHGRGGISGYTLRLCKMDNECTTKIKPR

SMILES	aPTT (concentration of test substance which brings about a 1.5-fold extension of the aPTT) (human and animal plasma) [µmol/L]	IC50 (human factor XIa) [nM]	IC50 (human plasmin) [nM]
Cc1cc(C(=O)Nc2ccn(C)n2)ncc1-c1ccc(C[C@H](NC(=O)[C@H]2CC[C@H](CN)CC2)C(=O)Nc2ccc(-c3nnn[nH]3)cc2)cc1 [Example 23, N-alpha-{[trans-4-(Aminomethyl)cyclohexyl]carbonyl}-4-{4-methyl-6-[(1-methyl-1H-pyrazol-3-yl)carbamoyl]pyridin-3-yl}-N-[4-(1H-tetrazol-5-yl)phenyl]-L-phenylalaninamide hydrochloride]	0.17	2.5	4.5
Cc1nc(C(=O)N[C@H](C)CO)ccc1-c1ccc(C[C@H](NC(=O)[C@H]2CC[C@H](CN)CC2)C(=O)Nc2ccc(-c3nn[nH]n3)cc2)cc1 [Example 29, N-alpha-{[trans-4-(Aminomethyl)cyclohexyl]carbonyl}-4-(6-{[(2R)-1-hydroxypropan-2-yl]carbamoyl}-2-methylpyridin-3-yl)-N-[4-(2H-tetrazol-5-yl)phenyl]-L-phenylalaninamide hydrochloride]	–	2.4	10
Cc1cc(C(=O)N2CCN(C)CC2)ncc1-c1ccc(C[C@H](NC(=O)[C@H]2CC[C@H](CN)CC2)C(=O)Nc2ccc(-c3nnn[nH]3)cc2)cc1 [Example 33, N-alpha-{[trans-4-(Aminomethyl)cyclohexyl]carbonyl}-4-{4-methyl-6-[(4-methylpiperazin-1-yl)carbonyl]pyridin-3-yl}-N-[4-(1H-tetrazol-5-yl)phenyl]-L-phenylalaninamide hydrochloride]	0.44	4.2	–
Cc1nc(C(=O)NC2CCC2)ccc1-c1ccc(C[C@H](NC(=O)[C@H]2CC[C@H](CN)CC2)C(=O)Nc2ccc3cn[nH]c3c2)cc1 [Example 34, N-alpha-{[trans-4-(Aminomethyl)cyclohexyl]carbonyl}-4-[6-(cyclobutylcarbamoyl)-2-methylpyridin-3-yl]-N-1H-indazol-6-yl-L-phenylalaninamide hydrochloride]	0.41	8.2	0.9
Cc1nc(C(=O)NC(C)C(F)(F)F)ccc1-c1ccc(C[C@H](NC(=O)[C@H]2CC[C@H](CN)CC2)C(=O)Nc2ccc3cn[nH]c3c2)cc1 (stereo partly drawn) [Example 35, N-alpha-{[trans-4-(Aminomethyl)cyclohexyl]carbonyl}-N-1H-indazol-6-yl-4-{2-methyl-6-[(1,1,1-trifluoropropan-2-yl)carbamoyl]pyridin-3-yl}-L-phenylalaninamide hydrochloride]	0.49	8.7	1.1
Cc1nc(C(=O)NC(C)C(F)(F)F)ccc1-c1ccc(C[C@H](NC(=O)[C@H]2CC[C@H](CN)CC2)C(=O)Nc2ccc3[nH]c(=O)[nH]c3c2)cc1 (stereo partly drawn) [Example 36, N-alpha-{[trans-4-(Aminomethyl)cyclohexyl]carbonyl}-4-{2-methyl-6-[(1,1,1-trifluoropropan-2-yl)carbamoyl]pyridin-3-yl}-N-(2-oxo-2,3-dihydro-1H-benzimidazol-5-yl)-L-phenylalaninamide hydrochloride]	0.21	11	1.2
Cc1nc(C(=O)NC2CCC2)ccc1-c1ccc(C[C@H](NC(=O)[C@H]2CC[C@H](CN)CC2)C(=O)Nc2ccc3[nH]c(=O)[nH]c3c2)cc1 [Example 37, N-alpha-{[trans-4-(Aminomethyl)cyclohexyl]carbonyl}-4-[6-(cyclobutylcarbamoyl)-2-methylpyridin-3-yl]-N-(2-oxo-2,3-dihydro-1H-benzimidazol-5-yl)-L-phenylalaninamide hydrochloride]	0.2	13	1.5
Cc1nc(C(=O)NC(C)C)ccc1-c1ccc(C[C@H](NC(=O)[C@H]2CC[C@H](CN)CC2)C(=O)Nc2cc(Cl)c3oc(=O)[nH]c3c2)cc1 [Example 38, N-alpha-{[trans-4-(Aminomethyl)cyclohexyl]carbonyl}-N-(7-chloro-2-oxo-2,3-dihydro-1,3-benzoxazol-5-yl)-4-[6-(isopropylcarbamoyl)-2-methylpyridin-3-yl]-L-phenylalaninamide hydrochloride]	0.99	14	0.8
Cc1nc(C(=O)NC(C)C)ccc1-c1ccc(C[C@H](NC(=O)[C@H]2CC[C@H](CN)CC2)C(=O)Nc2ccc3c(=O)[nH][nH]c3c2)cc1 [Example 39, N-alpha-{[trans-4-(Aminomethyl)cyclohexyl]carbonyl}-4-[6-(isopropylcarbamoyl)-2-methylpyridin-3-yl]-N-(3-oxo-2,3-dihydro-1H-indazol-6-yl)-L-phenylalaninamide hydrochloride]	0.27	4.3	1.2
Cc1nc(C(=O)NC(C)C)ccc1-c1ccc(C[C@H](NC(=O)[C@H]2CC[C@H](CN)CC2)C(=O)Nc2ccc3[nH]c(=O)[nH]c3c2)cc1 [Example 40, N-alpha-{[trans-4-(Aminomethyl)cyclohexyl]carbonyl}-4-[6-(isopropylcarbamoyl)-2-methylpyridin-3-yl]-N-(2-oxo-2,3-dihydro-1H-benzimidazol-5-yl)-L-phenylalaninamide hydrochloride]	–	15.5	1.8
